Where “and” joins values, the source holds several entries; their conditions need not be identical. Identical values can stand only once. Counter-ions that a name gives are not always drawn.

On to `COc1cc(OC)cc(C(CCNC(C)C)c2ccc3ncc(-c4cnn(C)c4)nc3c2)c1` (single isomer, unassigned) (as salt: oxalic acid salt) [Compound 19a], for which the melting point is 163 °C and 162 °C.

`COc1cc(OC)cc(C(CC(C)=O)c2ccc3ncc(-c4cnn(C)c4)nc3c2)c1` (stereo not drawn) [Compound 16] displayed a melting point of 154 °C. Next, `COc1cc(OC)cc(C(CCNC(C)C)c2ccc3ncc(-c4cnn(C)c4)nc3c2)c1` (single isomer, unassigned) (as salt: oxalic acid salt) [Compound 32a]: 172 °C.

For orientation: melting point means the temperature of the solid-liquid transition.
